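Exposure lasted 48 hours, with cells grown in 96-well plates and compounds tested at five concentrations. GI50 marks 50% less growth.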 Activity calls are given as the source filed them. Cut-off read from the data, not from the text of the source: active = GI50 up to about 1.1 µM and inactive = higher.
Experiments:
Experiment in all cases: NCI-60 cell line screen, 48 h
M14 = tested on: M14
UACC-62 = tested on: UACC-62
HL-60 = tested on: HL-60
OVCAR-4 = tested on: OVCAR-4
U-251 = tested on: U-251
SF-295 = tested on: SF-295
SR = tested on: SR
NCI-H522 = tested on: NCI-H522
Malme-3M = tested on: Malme-3M
IGROV-1 = tested on: IGROV-1
NCI-H23 = tested on: NCI-H23
COLO 205 = tested on: COLO 205
SK-MEL-5 = tested on: SK-MEL-5
OVCAR-8 = tested on: OVCAR-8
OVCAR-5 = tested on: OVCAR-5
SW-620 = tested on: SW-620
SNB-75 = tested on: SNB-75
RXF 393 = tested on: RXF 393
MOLT-4 = tested on: MOLT-4
A549 = tested on: A549

Measured: GI50

CC(C)=CCC/C(C)=C/CC/C(C)=C/C(O)c1ccccc1 (stereo not given)
inactive: M14 18.3 µM | UACC-62 17 µM | HL-60 22.5 µM | OVCAR-4 > 10 µM | U-251 18.2 µM | SF-295 18.1 µM | SR 20.7 µM | NCI-H522 > 10 µM | Malme-3M 19.2 µM | IGROV-1 19.8 µM | NCI-H23 22.7 µM | COLO 205 18.5 µM | SK-MEL-5 16.6 µM | OVCAR-8 20.6 µM | OVCAR-5 18.3 µM | SW-620 20.2 µM

CCN1CCC(O)(c2ccc(O)cc2)C(C(=O)c2ccc(O)cc2)C1 (stereo not given)
inactive: M14 19.5 µM | UACC-62 16.4 µM | HL-60 31.7 µM | SNB-75 11.2 µM | OVCAR-4 27.7 µM | RXF 393 16.6 µM | U-251 > 100 µM | SF-295 > 100 µM | SR 16.5 µM | Malme-3M 20.5 µM | IGROV-1 21.6 µM | NCI-H23 20.3 µM | COLO 205 4.45 µM | SK-MEL-5 10.8 µM | OVCAR-8 40.6 µM | MOLT-4 21.9 µM | OVCAR-5 21.1 µM | SW-620 2.95 µM

CC(C)OP(=O)(OC(C)C)/C(F)=N/Nc1ccc([N+](=O)[O-])cc1
inactive: M14 > 100 µM | UACC-62 > 100 µM | HL-60 > 100 µM | SNB-75 38.7 µM | OVCAR-4 > 100 µM | U-251 > 100 µM | SF-295 > 100 µM | SR > 100 µM | NCI-H522 > 100 µM | Malme-3M > 100 µM | IGROV-1 > 100 µM | NCI-H23 > 100 µM | COLO 205 > 100 µM | SK-MEL-5 > 100 µM | OVCAR-8 > 100 µM | MOLT-4 > 100 µM | OVCAR-5 > 100 µM | A549 > 100 µM | SW-620 > 100 µM

Nc1ccc(S(=O)(=O)c2ccc(NCN3C(=O)NC(=O)C(=O)C3=O)cc2)cc1 [ALLANTODAPSONE]
inactive: M14 > 100 µM | UACC-62 > 100 µM | OVCAR-4 > 100 µM | RXF 393 > 100 µM | U-251 > 100 µM | SF-295 > 100 µM | SR > 100 µM | NCI-H522 > 100 µM | Malme-3M > 100 µM | IGROV-1 > 100 µM | NCI-H23 > 100 µM | SK-MEL-5 > 100 µM | OVCAR-8 > 100 µM | MOLT-4 > 100 µM | OVCAR-5 > 100 µM | A549 > 100 µM | SW-620 > 100 µM

Reference: ChEMBL document CHEMBL1201862, “PubChem BioAssay data set” (2004)
